The target in test [1] is D(2) dopamine receptor (Rattus norvegicus) (UniProt P61169). In words: Displacement of spiperone from dopamine receptor D2 of rat brain membrane.
Test [2] addresses Sigma non-opioid intracellular receptor 1 (Rattus norvegicus) (UniProt Q9R0C9). In words: Displacement of (+)-3PPP from sigma receptor of rat brain membrane.

Chain of Sigma non-opioid intracellular receptor 1 (Rattus norvegicus) (Q9R0C9 whole entry): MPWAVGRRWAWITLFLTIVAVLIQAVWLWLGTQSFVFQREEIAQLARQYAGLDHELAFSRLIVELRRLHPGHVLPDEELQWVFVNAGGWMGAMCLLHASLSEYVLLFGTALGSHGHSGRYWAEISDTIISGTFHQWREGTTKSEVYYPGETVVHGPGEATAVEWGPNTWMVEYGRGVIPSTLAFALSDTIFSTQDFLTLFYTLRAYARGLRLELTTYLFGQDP
Chain of D(2) dopamine receptor (Rattus norvegicus) (P61169 whole entry): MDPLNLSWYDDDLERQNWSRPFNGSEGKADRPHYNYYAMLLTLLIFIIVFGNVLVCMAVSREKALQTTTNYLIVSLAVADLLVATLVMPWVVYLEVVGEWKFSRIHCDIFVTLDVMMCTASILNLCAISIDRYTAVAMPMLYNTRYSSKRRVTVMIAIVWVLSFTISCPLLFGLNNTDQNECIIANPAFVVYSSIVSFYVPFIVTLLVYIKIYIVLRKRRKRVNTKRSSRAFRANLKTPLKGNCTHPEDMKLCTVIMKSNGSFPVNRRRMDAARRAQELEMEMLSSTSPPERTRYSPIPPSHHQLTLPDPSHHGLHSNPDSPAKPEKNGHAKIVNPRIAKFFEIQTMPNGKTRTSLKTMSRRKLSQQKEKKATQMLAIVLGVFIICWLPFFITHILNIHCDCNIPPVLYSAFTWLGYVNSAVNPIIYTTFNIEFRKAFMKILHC

On to `CN1CCC[C@H](c2cccc(O)c2)C1`, for which the Log IC50 in test [1] was determined as 0.61 µM; in test [2], 0.43 µM.

With `CCCCN1CCC[C@@H](c2cccc(O)c2)C1`, the values for the Log IC50 in test [1] and in test [2] were 0.56 µM and 1.51 µM, respectively.

`CCCCN1CCC[C@H](c2cccc(O)c2)C1`: the Log IC50 stood at 0.43 µM in test [1] and 2.05 µM in test [2].

In test [2], `CCCN1CCC[C@H](c2cccc(O)c2)C1` came in with a Log IC50 of 1.52 µM.

On to `CCc1ccc(N2CCC[C@@H](c3cccc(O)c3)C2)cc1`, for which the Log IC50 in test [1] came to 1.36 µM; in test [2], 1.8 µM.

Consider `CC(C)N1CCC[C@H](c2cccc(O)c2)C1`, for which the values for the Log IC50 in test [1] and in test [2] were 1.08 µM and 0.61 µM, respectively.

Turning to `Oc1cccc([C@@H]2CCCNC2)c1`, the Log IC50 in test [1] was 0.24 µM; in test [2] it was 1.19 µM.

In the case of `CCc1ccc(N2CCC[C@H](c3cccc(O)c3)C2)cc1`, the Log IC50 in test [1] turned out to be 0.09 µM; in test [2], 2.1 µM.

For `Oc1cccc([C@H]2CCCNC2)c1`, the results for the Log IC50 in test [1] and in test [2] were 0.36 µM and 0.66 µM, respectively.

For `CC(C)N1CCC[C@@H](c2cccc(O)c2)C1`, the Log IC50 in test [1] worked out at 0.45 µM; in test [2], 0.68 µM.

`CCCN1CCC[C@@H](c2cccc(O)c2)C1`: the Log IC50 in test [2] amounted to 0.81 µM.

Values taken from ChEMBL document CHEMBL1127535, “Molecular similarity, quantitative chirality, and QSAR for chiral drugs” (J Med Chem, 1994).
